Laboratory results published in PubChem BioAssay (NCI).
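The concentration for 50% growth inhibition is given as GI50. TGI: total growth inhibition.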

Key:
Test in all cases: DTP human tumour cell line panel, 384-well format
786-0 renal = tested on: 786-0 renal
A498 renal = tested on: A498 renal
A549 NSCLC = tested on: A549 NSCLC
ACHN renal = tested on: ACHN renal
BT-549 breast = tested on: BT-549 breast
CAKI-1 renal = tested on: CAKI-1 renal
CCRF-CEM leukemia = tested on: CCRF-CEM leukemia
COLO 205 colon = tested on: COLO 205 colon
DU-145 prostate = tested on: DU-145 prostate
EKVX NSCLC = tested on: EKVX NSCLC
HCC-2998 colon = tested on: HCC-2998 colon
HCT-116 colon = tested on: HCT-116 colon
HCT-15 colon = tested on: HCT-15 colon
HL-60(TB) leukemia = tested on: HL-60(TB) leukemia
HOP-62 NSCLC = tested on: HOP-62 NSCLC
HOP-92 NSCLC = tested on: HOP-92 NSCLC
HS 578T breast = tested on: HS 578T breast
HT29 colon = tested on: HT29 colon
IGROV1 ovarian = tested on: IGROV1 ovarian
K-562 leukemia = tested on: K-562 leukemia
KM12 colon = tested on: KM12 colon
M14 melanoma = tested on: M14 melanoma
MALME-3M melanoma = tested on: MALME-3M melanoma
MCF7 breast = tested on: MCF7 breast
MDA-MB-231 breast = tested on: MDA-MB-231 breast
MDA-MB-435 melanoma = tested on: MDA-MB-435 melanoma
MDA-MB-468 breast = tested on: MDA-MB-468 breast
MOLT-4 leukemia = tested on: MOLT-4 leukemia
NCI-H226 lung = tested on: NCI-H226 lung
NCI-H23 lung = tested on: NCI-H23 lung
NCI-H322M lung = tested on: NCI-H322M lung
NCI-H460 NSCLC = tested on: NCI-H460 NSCLC
NCI-H522 lung = tested on: NCI-H522 lung
NCI/ADR-RES ovarian = tested on: NCI/ADR-RES ovarian
OVCAR-3 ovarian = tested on: OVCAR-3 ovarian
OVCAR-4 ovarian = tested on: OVCAR-4 ovarian
OVCAR-5 ovarian = tested on: OVCAR-5 ovarian
PC-3 prostate = tested on: PC-3 prostate
RPMI-8226 leukemia = tested on: RPMI-8226 leukemia
RXF 393 renal = tested on: RXF 393 renal
SF-268 CNS = tested on: SF-268 CNS
SF-295 CNS = tested on: SF-295 CNS
SF-539 CNS = tested on: SF-539 CNS
SK-MEL-2 melanoma = tested on: SK-MEL-2 melanoma
SK-MEL-28 melanoma = tested on: SK-MEL-28 melanoma
SK-MEL-5 melanoma = tested on: SK-MEL-5 melanoma
SK-OV-3 ovarian = tested on: SK-OV-3 ovarian
SNB-19 CNS = tested on: SNB-19 CNS
SNB-75 CNS = tested on: SNB-75 CNS
SR leukemia = tested on: SR leukemia
SW-620 colon = tested on: SW-620 colon
T-47D breast = tested on: T-47D breast
TK-10 renal = tested on: TK-10 renal
U251 glioblastoma = tested on: U251 glioblastoma
UACC-257 melanoma = tested on: UACC-257 melanoma
UACC-62 melanoma = tested on: UACC-62 melanoma
UO-31 renal = tested on: UO-31 renal

Compound CS(=O)(=O)c1ccc(-c2cnc(N)c(C(=O)Nc3ccccc3)n2)cc1 has a GI50 ([…]-0 renal) of 3.11 µM, a TGI (786-0 renal) of 65.7 µM and a GI50 (A498 renal) of 2.78 µM. It also gave a TGI (A498 renal) of 28.6 µM, a GI50 (A549 NSCLC) of 5.47 µM and a TGI (A549 NSCLC) greater than 100 µM. It also gave a GI50 (ACHN renal) of 3.02 µM, a TGI (ACHN renal) of 16.1 µM and a GI50 (BT-549 breast) of 2.6 µM. It also gave a TGI (BT-549 breast) of 11.5 µM, a GI50 (CAKI-1 renal) of 5.25 µM and a TGI (CAKI-1 renal) of 18.4 µM. The GI50 (CCRF-CEM leukemia) was 1.51 µM, the TGI (CCRF-CEM leukemia) was 3.01 µM and the GI50 (COLO 205 colon) was 29.5 µM. For the same compound, the TGI (COLO 205 colon) was greater than 100 µM, the GI50 (DU-145 prostate) was 4.53 µM and the TGI (DU-145 prostate) was greater than 100 µM. It also gave a GI50 (EKVX NSCLC) greater than 100 µM, a TGI (EKVX NSCLC) greater than 100 µM and a GI50 (HCC-2998 colon) of 0.543 µM. It also gave a TGI (HCC-2998 colon) of 9.37 µM, a GI50 (HCT-116 colon) greater than 100 µM and a TGI (HCT-116 colon) greater than 100 µM. For the same compound, the GI50 (HCT-15 colon) was 3.32 µM, the TGI (HCT-15 colon) was greater than 100 µM and the GI50 (HL-60(TB) leukemia) was 3.34 µM. The TGI (HL-60(TB) leukemia) was 9.07 µM, the GI50 (HOP-62 NSCLC) was 7.72 µM and the TGI (HOP-62 NSCLC) was greater than 100 µM. For the same compound, the GI50 (HOP-92 NSCLC) was 4.58 µM, the TGI (HOP-92 NSCLC) was greater than 100 µM and the GI50 (HS 578T breast) was 4.54 µM. The TGI (HS 578T breast) was 49.9 µM, the GI50 (HT29 colon) was 3.76 µM and the TGI (HT29 colon) was greater than 100 µM. The GI50 (IGROV1 ovarian) was 2.9 µM, the TGI (IGROV1 ovarian) was greater than 100 µM and the GI50 (K-562 leukemia) was 4.62 µM. It also gave a TGI (K-562 leukemia) greater than 100 µM, a GI50 (KM12 colon) of 40 µM and a TGI (KM12 colon) greater than 100 µM. It also gave a GI50 (M14 melanoma) of 5.68 µM, a TGI (M14 melanoma) greater than 100 µM and a GI50 (MALME-3M melanoma) of 37.2 µM. It also gave a TGI (MALME-3M melanoma) greater than 100 µM, a GI50 (MCF7 breast) of 2.78 µM and a TGI (MCF7 breast) greater than 100 µM. For the same compound, the GI50 (MDA-MB-231 breast) was 62.3 µM, the TGI (MDA-MB-231 breast) was greater than 100 µM and the GI50 (MDA-MB-435 melanoma) was greater than 100 µM. It also gave a TGI (MDA-MB-435 melanoma) greater than 100 µM, a GI50 (MDA-MB-468 breast) of 2.6 µM and a TGI (MDA-MB-468 breast) greater than 100 µM. For the same compound, the GI50 (MOLT-4 leukemia) was 1.46 µM, the TGI (MOLT-4 leukemia) was 2.81 µM and the GI50 (NCI-H226 lung) was 46.8 µM. It also gave a TGI (NCI-H226 lung) greater than 100 µM, a GI50 (NCI-H23 lung) of 3.02 µM and a TGI (NCI-H23 lung) of 58.7 µM. For the same compound, the GI50 (NCI-H322M lung) was 14.9 µM, the TGI (NCI-H322M lung) was greater than 100 µM and the GI50 (NCI-H460 NSCLC) was 3.73 µM. It also gave a TGI (NCI-H460 NSCLC) greater than 100 µM, a GI50 (NCI-H522 lung) of 5.61 µM and a TGI (NCI-H522 lung) greater than 100 µM. It also gave a GI50 (NCI/ADR-RES ovarian) greater than 100 µM, a TGI (NCI/ADR-RES ovarian) greater than 100 µM and a GI50 (OVCAR-3 ovarian) of 12.1 µM. The TGI (OVCAR-3 ovarian) was greater than 100 µM, the GI50 (OVCAR-4 ovarian) was 11.9 µM and the TGI (OVCAR-4 ovarian) was 93 µM. It also gave a GI50 (OVCAR-5 ovarian) of 33.6 µM, a TGI (OVCAR-5 ovarian) greater than 100 µM and a GI50 (PC-3 prostate) of 15 µM. For the same compound, the TGI (PC-3 prostate) was greater than 100 µM, the GI50 (RPMI-8226 leukemia) was 3.12 µM and the TGI (RPMI-8226 leukemia) was greater than 100 µM. The GI50 (RXF 393 renal) was 6.56 µM, the TGI (RXF 393 renal) was 43.4 µM and the GI50 (SF-268 CNS) was greater than 100 µM. It also gave a TGI (SF-268 CNS) greater than 100 µM, a GI50 (SF-295 CNS) of 7.75 µM and a TGI (SF-295 CNS) greater than 100 µM. The GI50 (SF-539 CNS) was 5.27 µM, the TGI (SF-539 CNS) was greater than 100 µM and the GI50 (SK-MEL-2 melanoma) was 5.35 µM. For the same compound, the TGI (SK-MEL-2 melanoma) was 13.2 µM, the GI50 (SK-MEL-28 melanoma) was greater than 100 µM and the TGI (SK-MEL-28 melanoma) was greater than 100 µM. For the same compound, the GI50 (SK-MEL-5 melanoma) was 16.1 µM, the TGI (SK-MEL-5 melanoma) was greater than 100 µM and the GI50 (SK-OV-3 ovarian) was 3.68 µM. For the same compound, the TGI (SK-OV-3 ovarian) was 40 µM, the GI50 (SNB-19 CNS) was 28.2 µM and the TGI (SNB-19 CNS) was greater than 100 µM. The GI50 (SNB-75 CNS) was 16.6 µM, the TGI (SNB-75 CNS) was greater than 100 µM and the GI50 (SR leukemia) was 0.603 µM. It also gave a TGI (SR leukemia) of 4.57 µM, a GI50 (SW-620 colon) greater than 100 µM and a TGI (SW-620 colon) greater than 100 µM. It also gave a GI50 (T-47D breast) greater than 100 µM, a TGI (T-47D breast) greater than 100 µM and a GI50 (TK-10 renal) of 2.75 µM. It also gave a TGI (TK-10 renal) of 18.7 µM, a GI50 (U251 glioblastoma) of 6.52 µM and a TGI (U251 glioblastoma) greater than 100 µM. It also gave a GI50 (UACC-257 melanoma) greater than 100 µM, a TGI (UACC-257 melanoma) greater than 100 µM and a GI50 (UACC-62 melanoma) of 18.9 µM. It also gave a TGI (UACC-62 melanoma) greater than 100 µM, a GI50 (UO-31 renal) of 6.65 µM and a TGI (UO-31 renal) of 22.1 µM.
With NC(=O)NO the GI50 (CCRF-CEM leukemia) was 76.3 µM and the GI50 (HL-60(TB) leukemia) was 81.9 µM.
